Patent publication US9351983B2, “Use of glycerophosphoinositols for the treatment of septic shock” (CONSIGLIO NAZIONALE DELLE RICERCHE, priority 2012, dated 2016)

Tested on: LPS-activated tissue-factor (TF) activity in human monocytes
Assay: Pro-coagulant activity of tissue factor (one-stage clotting time) in LPS-stimulated human monocytes
Type: cell-based
Protocol: FIG. 2—The glycerophosphoinositols inhibit LPS-activated tissue-factor activity in human monocytes. Human monocytes were purified from peripheral blood of healthy donors and incubated at 37° C. for 20 min without or with different concentrations (from 50 μM to 300 μM) GroPIns or GroPIns4P, and for a further 5 h and 24 h in the absence and in presence of 0.1 μg/ml LPS from E. coli. […] Data are means (±SD) of three independent experiments performed with cells from different donors. Asterisks indicate statistically significant differences (*p=0.015; **p<0.005; ***p=0.0003) versus their respective controls. As shown, pro-coagulant activity was not detectable in untreated monocytes, and it was induced in a time-dependent manner by LPS stimulation.
The glycerophosphoinositol, differently from the PLA2IVα inhibitor, inhibits LPS-activated tissue-factor activity in human monocytes. Human monocytes were purified from peripheral blood of two healthy donors (experiment I and II) and pre-incubated at 37° C. for 20 min without (black line) or with 300 μM glycerophosphoinositol (GroPIns, blue line) or 0.5 μM PLA2IVα inhibitor (pyrrophenone, Pf, red line), and for a further 24 h in the absence or presence of increasing concentrations of LPS from E. coli (endotoxin).
The glycerophosphoinositol inhibits in a dose-dependent manner LPS-activated tissue-factor activity in human monocytes. Human monocytes were purified from peripheral blood of three healthy donors (experiments III, IV and V) and pre-incubated at 37° C. for 20 min without or with increasing concentrations of glycerophosphoinositol (GroPIns) and for a further 24 h in the absence or presence of 10 ng/ml of LPS from E. coli (endotoxin). […] The two insets in Exp IV and V show the pro-coagulant activity of tissue factor, assessed in cells stimulated by 10 ng/ml of endotoxin, with (filled bars) or without (dotted bars) 20 min pre-incubation at 37° C., in absence (Control) or in presence of 300 μM GroPIns.
The glycerophosphoinositols inhibit LPS-activated tissue-factor activity in human monocytes.
Human monocytes were obtained from whole blood collected from healthy donors (informed consent was obtained) and anticoagulated with 0.1 vol 3.8% sodium citrate/0.15 mol/l NaCl. The leukocytes were sedimented at 180×g for 15 min at 10° C. The sedimented cells were diluted to the initial volume with citrate-saline and sedimented again. This step was repeated to minimise platelet contamination. The cells were then layered onto Lymphoprep™, and centrifuged at 700×g for 20 min at 20° C. The ring of mononuclear cells was collected and sedimented at 620×g for 7 min at 8° C. The pellet was resuspended in citrate-saline and the cells were washed twice. Monocytes were purified using a discontinuous Percoll™ density gradient; the mononuclear cell preparation was resuspended in RPMI-1640 medium supplemented with 10% heat-inactivated foetal calf serum, and was layered onto a 46% isosmotic Percoll™ solution. After centrifugation at 20° C. for 30 min at 550×g, the cells at the RPMI-1640 medium/Percoll™ interface were collected and sedimented at 620×g. The pellet was resuspended in citrate-saline and the cells were washed twice. The final monocyte preparation was then resuspended in serum-free RPMI-1640 at the concentration required.
The pro-coagulant activity of tissue factor (TF activity) was measured in cell lysates according to one-stage clotting time [as reported in (Evangelista et al., Thromb Haemost. 2005; 94, 568-577)]. One hundred μl of cell lysates were added to 100 μl of 37° C. prewarmed normal human plasma. After 30 s, 100 μl 20 mM CaCl2 were added to the mixture and the clotting time was determined using a KC4A Amellung Coagulometer (Mascia Brunelli, Milan, Italy). The data were then converted in arbitrary units by interpolation with a standard curve generated with serial dilutions of human recombinant thromboplastin (Hemoliance, Instrumentation Laboratory).

[1] = 300 μM, endotoxin 10 ng/ml for 24 h (FIG. 12)

O=P(O)(O)O[C@@H]1[C@@H](O)[C@@H](O)[C@@H](OP(=O)(O)OCC(O)CO)[C@H](O)[C@H]1OP(=O)(O)O (stereo partly drawn) [GroPIns4,5P2, glycerophosphoinositol 4,5-bisphosphate]
TF activity [1]: reduce TF activity
efficacy in reducing TF activity compared with GroPIns [1]: higher efficacy than GroPIns

O=C1NC(=O)/C(=C/c2ccc(C(=O)NC[C@@H]3C[C@@H](SC(c4ccccc4)(c4ccccc4)c4ccccc4)CN3C(=O)c3ccccc3C(=O)c3ccc(F)cc3F)cc2)S1 [pyrrophenone, reference compound]
TF activity (0.5 μM, 20 min pre-incubation, increasing concentrations of endotoxin for 24 h (FIG. 10)): does not significantly inhibit endotoxin effect on tissue-factor activity
